According to ChEMBL document CHEMBL3046165, “Synthesis of new cyclic imides derivatives with potential hypolipidemic activity” (Med Chem Res, 2012):

What was measured:
Rattus norvegicus [1] = assay: Toxicity in triton WR-1339-induced Rattus norvegicus albino Wistar (rat) hyperlipidemic model assessed as reduction of serum HDL level at 150 mg/kg, po qd after 24 hr; assay type: organism-based; set-up: dose 150 mg/kg, route oral; details: in vivo
Rattus norvegicus [2] = assay: Toxicity in triton WR-1339-induced Rattus norvegicus albino Wistar (rat) hyperlipidemic model assessed as increase of serum total triglyceride level at 150 mg/kg, po qd after 24 hr; assay type: organism-based; set-up: dose 150 mg/kg, route oral; details: in vivo
Rattus norvegicus [3] = assay: Toxicity in triton WR-1339-induced Rattus norvegicus albino Wistar (rat) hyperlipidemic model assessed as increase of serum LDL level at 150 mg/kg, po qd after 24 hr; assay type: organism-based; set-up: dose 150 mg/kg, route oral; details: in vivo
Rattus norvegicus [4] = assay: Toxicity in triton WR-1339-induced Rattus norvegicus albino Wistar (rat) hyperlipidemic model assessed as increase of serum total cholesterol level at 150 mg/kg, po qd after 24 hr; assay type: organism-based; set-up: dose 150 mg/kg, route oral; details: in vivo
Rattus norvegicus [5] = assay: Hypolipidemic activity in triton WR-1339-induced Rattus norvegicus albino Wistar (rat) hyperlipidemic model assessed as reduction of serum total triglyceride level at 150 mg/kg, po qd after 24 hr; assay type: functional; set-up: scale not given: the % may be the effect or the level left
Rattus norvegicus [6] = assay: Hypolipidemic activity in triton WR-1339-induced Rattus norvegicus albino Wistar (rat) hyperlipidemic model assessed as reduction of serum total cholesterol level at 150 mg/kg, po qd after 24 hr; assay type: functional; set-up: scale not given: the % may be the effect or the level left
Rattus norvegicus [7] = assay: Hypolipidemic activity in triton WR-1339-induced Rattus norvegicus albino Wistar (rat) hyperlipidemic model assessed as increase of serum HDL level at 150 mg/kg, po qd after 24 hr; assay type: functional

Row | SMILES | Activity (Rattus norvegicus [1]) | Activity (Rattus norvegicus [2]) | Activity (Rattus norvegicus [3]) [%] | Activity (Rattus norvegicus [4]) | Activity (Rattus norvegicus [5]) [%] | Activity (Rattus norvegicus [6]) [%] | Activity (Rattus norvegicus [7]) [%]
1 | CC(C(=O)NCc1ccccc1)N1C(=O)c2ccccc2C1=O (centres undefined) | Toxic | Toxic | 35.5 | Toxic | – | – | –
2 | CC(C(=O)Nc1ccccc1)N1C(=O)c2ccccc2C1=O (centres undefined) | – | – | – | – | <24 | <24 | –
3 | CCNC(=O)C(C)N1C(=O)c2ccccc2C1=O (centres undefined) | Toxic | Toxic | 35.5 | Toxic | – | – | –
4 | CCCNC(=O)C(C)N1C(=O)c2ccccc2C1=O (centres undefined) | Toxic | Toxic | 35.5 | Toxic | – | – | –
5 | CC(C)NC(=O)C(C)N1C(=O)c2ccccc2C1=O (centres undefined) | Toxic | Toxic | 35.5 | Toxic | – | – | –
6 | CC(C(=O)NCCc1ccccc1)N1C(=O)c2ccccc2C1=O (centres undefined) | Toxic | Toxic | 35.5 | Toxic | – | – | –
7 | CC(C(=O)N1CCCC1)N1C(=O)c2ccccc2C1=O (centres undefined) | Toxic | Toxic | 35.5 | Toxic | – | – | –
8 | CCNC(=O)C(C)N1C(=O)c2cccc3cccc(c23)C1=O (centres undefined) | – | – | 4.5 | – | – | – | 29.3
9 | CC(C(=O)Nc1ccccc1)N1C(=O)c2cccc3cccc(c23)C1=O (centres undefined) | – | – | 4.5 | – | – | – | 29.3
10 | CC(C(=O)NCc1ccccc1)N1C(=O)c2cccc3cccc(c23)C1=O (centres undefined) | – | – | 4.5 | – | – | – | 29.3
11 | CC(C(=O)NCc1ccccc1)n1c(=O)c2ccccc2c2ccccc2c1=O (centres undefined) | – | – | 4.5 | – | – | – | 29.3
12 | CCNC(=O)c1ccccc1C(=O)NC(C)C(=O)NCC (centres undefined) | – | – | – | – | 46.5 | 48.6 | –
13 | CC(C)OC(=O)C(C)(C)Oc1ccc(C(=O)c2ccc(Cl)cc2)cc1 [FENOFIBRATE] | – | – | 13 | – | 20 | 23 | –
